# pIC50: −log10 of the molar value.
# Target: T1, active p38 alpha enzyme (Upstate Biotechnology) (Homo sapiens, UniProt Q16539)
# T1 construct: purchased Upstate Biotechnology
# Assay: p38α biochemical assay (ATP turnover, luminescent detection, Cambrex PKlight)
# Conditions: p38α kinase; Table 1 Biological Activity
# Summary of the method: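 Luminescent PKlight readout of total ATP consumption follows a 2 h, 30C kinase reaction. Enzyme and MapkapK2 substrate run with 1.4 uM ATP (final) in buffer containing Mg2+, Ca2+, chelators, glycerol, reducing agent and BSA; test compounds added by pintool from DMSO.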
# T1 sequence (Q16539 whole entry): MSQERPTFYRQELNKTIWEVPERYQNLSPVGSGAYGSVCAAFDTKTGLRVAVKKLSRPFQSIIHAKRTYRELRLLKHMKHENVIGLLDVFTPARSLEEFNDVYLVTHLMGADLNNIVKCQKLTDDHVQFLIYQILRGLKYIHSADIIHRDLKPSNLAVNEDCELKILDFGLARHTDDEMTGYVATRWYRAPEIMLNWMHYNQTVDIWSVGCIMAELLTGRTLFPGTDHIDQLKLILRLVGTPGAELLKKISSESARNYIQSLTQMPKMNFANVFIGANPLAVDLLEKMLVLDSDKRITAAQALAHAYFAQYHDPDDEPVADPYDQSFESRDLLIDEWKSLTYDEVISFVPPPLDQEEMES
row,SMILES,pIC50
1,CCOC(=O)CC(=O)N1CCC(c2[nH]nc(-c3ccc(F)cc3)c2-c2nc(C(=O)NC(C)C)cs2)CC1 [Example 834],≥ 6.00
2,Cc1cccc(C(=O)N2CCC(c3[nH]nc(-c4ccc(F)cc4)c3-c3nc(C(=O)NC(C)C)cs3)CC2)c1 [Example 835],< 6.00
3,Cc1ccccc1C(=O)N1CCC(c2[nH]nc(-c3ccc(F)cc3)c2-c2nc(C(=O)NC(C)C)cs2)CC1 [Example 836],≥ 6.00
4,Cc1ccc(C(=O)N2CCC(c3[nH]nc(-c4ccc(F)cc4)c3-c3nc(C(=O)NC(C)C)cs3)CC2)cc1 [Example 837],< 6.00
5,CC(C)NC(=O)c1csc(-c2c(-c3ccc(F)cc3)n[nH]c2C2CCN(C(=O)c3cccc(O)c3)CC2)n1 [Example 838],≥ 6.00
6,CC(C)NC(=O)c1csc(-c2c(-c3ccc(F)cc3)n[nH]c2C2CCN(C(=O)c3ccccc3O)CC2)n1 [Example 839],< 6.00
7,CC(C)NC(=O)c1csc(-c2c(-c3ccc(F)cc3)n[nH]c2C2CCN(C(=O)c3ccc(F)cc3)CC2)n1 [Example 840],< 6.00
8,CC(C)NC(=O)c1csc(-c2c(-c3ccc(F)cc3)n[nH]c2C2CCN(C(=O)c3cccc(F)c3)CC2)n1 [Example 841],< 6.00
9,CCCCCCCC(=O)N1CCC(c2[nH]nc(-c3ccc(F)cc3)c2-c2nc(C(=O)NC(C)C)cs2)CC1 [Example 842],< 6.00
10,CC(C)NC(=O)c1csc(-c2c(-c3ccc(F)cc3)n[nH]c2C2CCN(C(=O)c3cccc(C#N)c3)CC2)n1 [Example 844],< 6.00
11,CC(C)NC(=O)c1csc(-c2c(-c3ccc(F)cc3)n[nH]c2C2CCN(C(=O)/C=C/c3ccccc3)CC2)n1 [Example 845],< 6.00
12,CC(C)NC(=O)c1csc(-c2c(-c3ccc(F)cc3)n[nH]c2C2CCN(C(=O)c3ccccc3C=O)CC2)n1 [Example 846],≥ 6.00
13,CC(C)NC(=O)c1csc(-c2c(-c3ccc(F)cc3)n[nH]c2C2CCN(C(=O)c3ccc(C=O)cc3)CC2)n1 [Example 847],≥ 6.00
14,Cc1ccc(C(=O)N2CCC(c3[nH]nc(-c4ccc(F)cc4)c3-c3nc(C(=O)NC(C)C)cs3)CC2)c(C)c1 [Example 848],< 6.00
15,Cc1ccccc1CC(=O)N1CCC(c2[nH]nc(-c3ccc(F)cc3)c2-c2nc(C(=O)NC(C)C)cs2)CC1 [Example 849],< 6.00
16,Cc1cccc(C(=O)N2CCC(c3[nH]nc(-c4ccc(F)cc4)c3-c3nc(C(=O)NC(C)C)cs3)CC2)c1C [Example 850],< 6.00
17,Cc1ccc(C)c(C(=O)N2CCC(c3[nH]nc(-c4ccc(F)cc4)c3-c3nc(C(=O)NC(C)C)cs3)CC2)c1 [Example 851],< 6.00
18,Cc1cc(C)cc(C(=O)N2CCC(c3[nH]nc(-c4ccc(F)cc4)c3-c3nc(C(=O)NC(C)C)cs3)CC2)c1 [Example 852],< 6.00
19,Cc1ccc(C(=O)N2CCC(c3[nH]nc(-c4ccc(F)cc4)c3-c3nc(C(=O)NC(C)C)cs3)CC2)cc1C [Example 853],< 6.00
20,CCc1ccc(C(=O)N2CCC(c3[nH]nc(-c4ccc(F)cc4)c3-c3nc(C(=O)NC(C)C)cs3)CC2)cc1 [Example 854],< 6.00
21,COc1ccc(C(=O)N2CCC(c3[nH]nc(-c4ccc(F)cc4)c3-c3nc(C(=O)NC(C)C)cs3)CC2)cc1 [Example 855],< 6.00
22,Cc1cccc(C(=O)N2CCC(c3[nH]nc(-c4ccc(F)cc4)c3-c3nc(C(=O)NC(C)C)cs3)CC2)c1O [Example 856],< 6.00
23,CC(C)NC(=O)c1csc(-c2c(-c3ccc(F)cc3)n[nH]c2C2CCN(C(=O)Cc3ccccc3O)CC2)n1 [Example 857],≥ 6.00
24,CC(C)NC(=O)c1csc(-c2c(-c3ccc(F)cc3)n[nH]c2C2CCN(C(=O)Cc3cccc(O)c3)CC2)n1 [Example 858],< 6.00
25,Cc1ccc(O)c(C(=O)N2CCC(c3[nH]nc(-c4ccc(F)cc4)c3-c3nc(C(=O)NC(C)C)cs3)CC2)c1 [Example 859],< 6.00
26,CC(C)NC(=O)c1csc(-c2c(-c3ccc(F)cc3)n[nH]c2C2CCN(C(=O)c3cc(O)ccc3O)CC2)n1 [Example 860],< 6.00
27,CC(C)NC(=O)c1csc(-c2c(-c3ccc(F)cc3)n[nH]c2C2CCN(C(=O)c3cccc(O)c3O)CC2)n1 [Example 861],< 6.00
28,CC(C)NC(=O)c1csc(-c2c(-c3ccc(F)cc3)n[nH]c2C2CCN(C(=O)c3ccc(O)cc3O)CC2)n1 [Example 862],< 6.00

# Second part, the molecule after the results:
row,pIC50,SMILES
1,< 6.00,Cc1ccc(C(=O)N2CCC(c3[nH]nc(-c4ccc(F)cc4)c3-c3nc(C(=O)NC(C)C)cs3)CC2)cc1F [Example 863]
2,< 6.00,Cc1ccc(F)cc1C(=O)N1CCC(c2[nH]nc(-c3ccc(F)cc3)c2-c2nc(C(=O)NC(C)C)cs2)CC1 [Example 864]
3,< 6.00,CC(C)NC(=O)c1csc(-c2c(-c3ccc(F)cc3)n[nH]c2C2CCN(C(=O)c3ccccc3Cl)CC2)n1 [Example 865]
4,< 6.00,CC(C)NC(=O)c1csc(-c2c(-c3ccc(F)cc3)n[nH]c2C2CCN(C(=O)c3ccc(Cl)nc3)CC2)n1 [Example 866]
5,≥ 6.00,CC(C)NC(=O)c1csc(-c2c(-c3ccc(F)cc3)n[nH]c2C2CCN(C(=O)c3cccnc3Cl)CC2)n1 [Example 867]
6,≥ 6.00,CC(C)NC(=O)c1csc(-c2c(-c3ccc(F)cc3)n[nH]c2C2CCN(C(=O)c3ccnc(Cl)c3)CC2)n1 [Example 868]
7,≥ 6.00,CC(C)NC(=O)c1csc(-c2c(-c3ccc(F)cc3)n[nH]c2C2CCN(C(=O)c3cc(Cl)ccn3)CC2)n1 [Example 869]
8,≥ 6.00,CC(C)NC(=O)c1csc(-c2c(-c3ccc(F)cc3)n[nH]c2C2CCN(C(=O)c3ccncc3Cl)CC2)n1 [Example 870]
9,< 6.00,CC(C)NC(=O)c1csc(-c2c(-c3ccc(F)cc3)n[nH]c2C2CCN(C(=O)c3c(F)cccc3F)CC2)n1 [Example 871]
10,< 6.00,CC(C)NC(=O)c1csc(-c2c(-c3ccc(F)cc3)n[nH]c2C2CCN(C(=O)c3cccc(F)c3F)CC2)n1 [Example 872]
11,< 6.00,CC(C)NC(=O)c1csc(-c2c(-c3ccc(F)cc3)n[nH]c2C2CCN(C(=O)c3ccc(F)cc3F)CC2)n1 [Example 873]
12,< 6.00,CC(C)NC(=O)c1csc(-c2c(-c3ccc(F)cc3)n[nH]c2C2CCN(C(=O)c3cc(F)cc(F)c3)CC2)n1 [Example 874]
13,< 6.00,CC(C)NC(=O)c1csc(-c2c(-c3ccc(F)cc3)n[nH]c2C2CCN(C(=O)c3ccc(F)c(F)c3)CC2)n1 [Example 875]
14,< 6.00,CC(CC(=O)N1CCC(c2[nH]nc(-c3ccc(F)cc3)c2-c2nc(C(=O)NC(C)C)cs2)CC1)CC(C)(C)C (stereo not drawn) [Example 876]
15,< 6.00,CC(C)NC(=O)c1csc(-c2c(-c3ccc(F)cc3)n[nH]c2C2CCN(C(=O)c3cc4ccccc4o3)CC2)n1 [Example 877]
16,< 6.00,CC(C)NC(=O)c1csc(-c2c(-c3ccc(F)cc3)n[nH]c2C2CCN(C(=O)C3CCc4ccccc43)CC2)n1 (stereo not drawn) [Example 878]
17,< 6.00,CC(C)NC(=O)c1csc(-c2c(-c3ccc(F)cc3)n[nH]c2C2CCN(C(=O)C(Cl)(Cl)Cl)CC2)n1 [Example 879]
18,< 6.00,CC(C)NC(=O)c1csc(-c2c(-c3ccc(F)cc3)n[nH]c2C2CCN(C(=O)/C=C/c3ccccc3O)CC2)n1 [Example 880]
19,< 6.00,CC(=O)c1ccc(C(=O)N2CCC(c3[nH]nc(-c4ccc(F)cc4)c3-c3nc(C(=O)NC(C)C)cs3)CC2)cc1 [Example 881]
20,< 6.00,CC(C)NC(=O)c1csc(-c2c(-c3ccc(F)cc3)n[nH]c2C2CCN(C(=O)/C=C/c3cccc(O)c3)CC2)n1 [Example 882]

# Reference: patent US20060252807A1, “Novel ortho-terphenyl inhibitors of p38 kinase and methods of treating inflammatory disorders” (Kalypsys, Inc., priority 2005, published 2006)
